Tests used:
[1] = tested on: beta cells (insulin positive cells in pancreatic islet cells from newborn rats); assay: beta cell proliferation in vitro, BrdU incorporation in insulin positive islet cells; format: cell-based, rat; conditions: for number of labelled beta cells: then 10 μM BrdU for 90 min, absence of hormones 0.6%
From the text: Diabetes is characterized by insufficiency of the pancreatic beta cells to maintain normoglycemia. In type 1 diabetes (IDDM) this is due to destruction of the beta cells by an autoimmune process whereas in type 2 diabetes (NIDDM) it is due to a combination of beta cell deficiency and peripheral insulin resistance. […] However in diabetic patients the number of beta cells is reduced and it is therefore pertinent not only to improve the function of the beta cells by therapeutical means but also to increase the number of beta cells. […] In our efforts to identify beta cell growth factors we discovered that GLP-1 indeed could stimulate beta cell proliferation in vitro. The proliferation was measured as incorporation of the thymidine analogue 5-bromo-2-deoxyuridine into DNA in insulin positive cells in pancreatic islet cells from newborn rats. […] This may have important implication for the treatment and/or prevention of diabetes.
The protocol was a slight modification of the procedure described by Billestrup and Nielsen (Billestrup N, Nielsen J H: The stimulatory effect of growth hormone, prolactin, and placental lactogen on beta cell proliferation is not mediated by insulin-like growth factor-I. Endocrinology 1991; 129:883-888.). Pancreatic islets were isolated from newborn rats by the collagenase method and cultured for 2-5 days before use. 2000 islets were transfered to 15 ml plastic tubes and washed once with Ca/Mg-free Hank's balanced salt solution. 500 μl cold trypsin solution (0.05% trypsin, 0.53 mM EDTA in Ca/Mg-free Hank's solution). The islets were dispersed by aspiration with a pipette. 5 ml culture medium RPMI 1640 with 2% human serum was added. 75,000 islet cells were then placed in tissue culture flasks previously coated with ECL cell attachment matrix (Upstate Biotechnology) with 2 ml culture medium with 1 μg/ml human growth hormone (hGH) (Norditropin, Novo Nordisk). After 7 days in culture at 37C the medium was replaced with culture medium without hGH or with addition of 100 nM GLP-1, 5 μM Arg^34, Lys^26(N-ε-(γ-Glu(N-α-hexadecanoyl)))-GLP-1(7-37) or 200 ng/ml hGH. After 2 days in culture 10 μM 5-bromo-2-deoxyuridine (BrdU) was added and after 90 min the medium was removed and the cells fixed in 1% paraformaldehyde in 0.1 M phosphate buffer. The cells were then stained with antibodies to BrdU and insulin as described (Billestrup and Nielsen, 1991). The number of labelled beta cells in the absence of hormones was 0.6% and in the presence of hGH 3.5%. In the presence of GLP-1 the number was 1.7% and in the presence of Arg^34, Lys^26(N-ε-(γ-Glu(N-α-hexadecanoyl)))-GLP-1(7-37) 1.4%.

[2] = tested on: male Zucker Diabetic Fatty fa/fa (ZDF) rat; assay: blood glucose during a normal 24-hour feeding schedule in ZDF rats; format: in vivo
From the text: (§1) The male Zucker Diabetic Fatty fa/fa (ZDF) rat is a model of Type 2 diabetes. The rats are insulin resistant but normoglycemic from birth and they develop diabetes from about week 7 to week 10 of age. During the transitional period, the animals go through a state of impaired glucose tolerance. Although the animals are hyperinsulinemic before diabetes onset and during the early stages of diabetes, they later lose glucose-stimulated insulin secretion and finally become almost completely insulinopenic.
(§2) We have studied the effects of Arg^34, Lys^26(N-ε-(γ-Glu(N-α-hexadecanoyl)))-GLP-1(7-37) therapy during a period of time when the animals would normally progress from having impaired glucose tolerance to having overt Type 2 diabetes. Three groups of male ZDF rats (Genetic Models Inc, Indianapolis, Ind., U.S.A.) were studied and dosed subcutaneously bi-daily with either vehicle (group A), 30 (group B) or 150 μg/kg (group C) of Arg^34, Lys^26(N-ε-(γ-Glu(N-α-hexadecanoyl)))-GLP-1(7-37), n=6 per group. Animals were between 7 and 8 weeks old when dosing was initiated, and fed glucose levels were not different between the groups before dosing began. […] After 36 days of dosing, an oral glucose tolerance test was performed in the animals after an 11-hour fast. One g/kg of glucose was administered by oral gavage and subsequent measurements of blood glucose and plasma insulin were made.

[3] = tested on: male Zucker Diabetic Fatty fa/fa (ZDF) rat; assay: oral glucose tolerance test in ZDF rats; format: in vivo; conditions: group C, 150 μg/kg bi-daily, after 36 days; 11-hour fast, 1 g/kg glucose by oral gavage; total AUC, p<0.0002 by ANOVA
From the text: as §1, §2

beta-cells of ZDF rats [4] = assay: beta-cell proliferation rate in vivo, BrDU and insulin double staining of pancreas sections; set-up: species or system rat; conditions: 30 and 150 μg/kg bi-daily, 100 mg BrDU/kg i.p. six hours before sacrifice
Protocol: (§3) The rat experiment described in example 2 were examined for effects of Arg^34, Lys^26(N-ε-(γ-Glu(N-α-hexadecanoyl)))-GLP-1(7-37) (named GLP-1 in FIG. 3 and 4) on beta-cell growth and neogenesis.
Bromodeoxyuridine (BrDU) is incorporated in newly synthesized DNA and thus will label replicating cells. Six hours before sacrifice the rats were given an injection of 100 mg BrDU/kg intraperitoneally. After sacrifice the pancreata were fixed in 4% PFA, dehydrated, embedded in paraffin, and […] sections double stained for BrDU and insulin for the measurement of beta-cell proliferation rate.
Insulin was stained with guinea pig anti-insulin, peroxidase-coupled rabbit anti-guinea pig Ig, and developed with AEC to give a red stain. BrDU was stained by monoclonal mouse anti-BrDU, biotinylated goat anti-mouse Ig, avidin peroxidase, and developed with DAB and CuSO4 to give a dark brown stain. BrDU stained nuclei of cells with insulin stained cytoplasm was examined in more than 1500 cells per section. The examination of the sections were carried out with the origin of the sections blinded to the observer.

beta-cells of ZDF rats [5] = assay: relative mass of islet beta-cells, point counting stereologic techniques; format: in vivo, rat
From the text: as §3
Neighbor sections were stained for insulin and the combination of glucagon-somatostatin-pancreatic polypeptide for the measurement of the relative mass of islet beta-cells and nonbeta-cells. The beta-cells were stained for insulin as described above. The nonbeta-cells were stained with a mixture of monoclonal mouse anti-glucagon+rabbit anti-somatostatin+rabbit anti-pancreatic polypeptide, detected by biotinylated swine anti-multible Ig's, avidin peroxidase, and developed with DAB and CuSO4 to give a dark brown stain. The volume fractions of beta- and nonbeta-cells were estimated by point counting stereologic techniques.

“GLP-1: The term GLP-1 means GLP-1(7-37) or GLP-1(7-36) amide [reference compound]” was tested, and the “number of labelled beta cells” value ([1]; 100 nM GLP-1, 2 days in culture) was 1.7% and the “number of labelled beta cells (in words)” value ([1]; BrdU incorporation into DNA in insulin positive cells, newborn rat islet cells) was “increase the number of labelled beta cells”.

For “hGH: human growth hormone (hGH) (Norditropin, Novo Nordisk)”, the “number of labelled beta cells” value ([1]; 200 ng/ml hGH, 2 days in culture) was 3.5%.

For “Arg^34, Lys^26(N-ε-(γ-Glu(N-α-hexadecanoyl)))-GLP-1(7-37)”, the “number of labelled beta cells” value ([1]; 5 μM, 2 days in culture) was 1.4%, the “blood glucose levels during a normal 24-hour feeding schedule” value ([2]; group B (low dose), 30 μg/kg subcutaneously bi-daily, after 10 days of dosing) was “hyperglycemic” and the “blood glucose levels during a normal 24-hour feeding schedule, compared to initial measurements” value ([2]; group C, 150 μg/kg subcutaneously bi-daily, after 10 days of dosing) was “unchanged compared to the initial measurements”. For the same substance, the “blood glucose levels during a normal 24-hour feeding schedule, compared to vehicle- and low-dose-treated animals” value ([2]; group C, 150 μg/kg subcutaneously bi-daily, after 10 days, total area under the curve, p<0.0002 by ANOVA) was “significantly lower”, the “glycemic level in oral glucose tolerance test, compared to groups A and B” value [3] was “significantly lower” and the “fraction of beta-cells that had incorporated BrDU” value (beta-cells of ZDF rats [4]) was “dose dependent increase”. For the same substance, the “beta-cell fraction of the total pancreas, compared to vehicle treated rats” value (beta-cells of ZDF rats [5]; 30 ng/g for 6 weeks) was “significantly higher” and the “beta-cell fraction of the total pancreas” value (beta-cells of ZDF rats [5]; 150 ng/g, compared to 30 ng/g) was “no further increase”.

Source: patent US20030224983A1, “Stimulation of beta cell proliferation” (priority 1998, published 2003)
